Reference: US20230085307A1, “PYRIDAZINONE COMPOUND AND HERBICIDE” (NISSAN CHEMICAL CORPORATION, priority 2019, published 2023)

Legend:
green foxtail [1] = experiment: Test Example 4: herbicidal effect by soil treatment (Table 19, symbol G); type: in vivo, green foxtail (Setaria viridis); conditions: amount of applied herbicide 320 g/ha
Procedure, shortened: (§1)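 Pre-emergence style soil spray: seeds under ~1.5 cm sterilized diluvial soil received a uniform coat of emulsion diluted to the predetermined herbicide amount. Greenhouse 25–30° C; readout at week three on previously defined criteria.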

velvetleaf [2] = experiment: Test Example 5: herbicidal effect by foliage application, plastic box (Table 20, symbol M); type: in vivo, velvetleaf (Abutilon theophrasti); conditions: amount of applied herbicide 320 g/ha; foliage application after 14-day growth; evaluated three weeks after application
Procedure, shortened: (§2)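 Plants were sown into sterilized diluvial soil under about 1.5 cm cover and kept in a greenhouse at 25° C. to 30° C. Fourteen days on, foliage received an even spray of the diluted emulsion. Herbicidal or crop effect was judged three weeks afterwards.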

green foxtail [3] = experiment: Test Example 5: herbicidal effect by foliage application, plastic box (Table 20, symbol G); type: in vivo, green foxtail (Setaria viridis); conditions: amount of applied herbicide 320 g/ha; foliage application after 14-day growth; evaluated three weeks after application
Procedure, shortened: as §2

late watergrass = experiment: Test Example 1: herbicidal activity, application before weed generation under submerged conditions (Table 16, symbol A); type: in vivo, late watergrass (Echinochloa oryzicola); conditions: amount of applied herbicide 320 g/ha
Procedure, shortened: (§3)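 Alluvial soil was flooded to 4 cm depth, weed seeds were sown mixed and 2.5-leaf rice seedlings were transplanted. On sowing day, the compound's emulsion, diluted in water to a set dose, was applied to the water surface. Plants grew at 25–30 °C and were scored 0–5 after three weeks.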

blackgrass [4] = experiment: Test Example 4: herbicidal effect by soil treatment (Table 19, symbol J); type: in vivo, blackgrass (Alopecurus myosuroides); conditions: amount of applied herbicide 320 g/ha
Procedure, shortened: as §1

rice flat sedge = experiment: Test Example 3: herbicidal effect by foliage application, Wagner pot (Table 18, symbol E); type: in vivo, rice flat sedge (Cyperus iria); conditions: 320 g/ha
Procedure, shortened: (§4)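 Plants were sown in alluvial soil held under 0.1–0.5 cm standing water and grown 14 days in a greenhouse at 25–30 °C. An emulsifiable formulation, water-diluted to the set dose, was then sprayed onto the foliage, and effects were scored three weeks later using previously defined criteria.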

wild oat [5] = experiment: Test Example 4: herbicidal effect by soil treatment (Table 19, symbol I); type: in vivo, wild oat (Avena fatua); conditions: amount of applied herbicide 320 g/ha
Procedure, shortened: as §1

persian speedwell [6] = experiment: Test Example 4: herbicidal effect by soil treatment (Table 19, symbol R); type: in vivo, Persian speedwell (Veronica persica); conditions: amount of applied herbicide 320 g/ha
Procedure, shortened: as §1

chickweed [7] = experiment: Test Example 4: herbicidal effect by soil treatment (Table 19, symbol P); type: in vivo, common chickweed (Stellaria media); conditions: amount of applied herbicide 320 g/ha
Procedure, shortened: as §1

wild oat [8] = experiment: Test Example 5: herbicidal effect by foliage application, plastic box (Table 20, symbol I); type: in vivo, wild oat (Avena fatua); conditions: amount of applied herbicide 320 g/ha; foliage application after 14-day growth; evaluated three weeks after application
Procedure, shortened: as §2

Italian ryegrass [9] = experiment: Test Example 4: herbicidal effect by soil treatment (Table 19, symbol K); type: in vivo, Italian ryegrass (Lolium multiflorum); conditions: amount of applied herbicide 320 g/ha
Procedure, shortened: as §1

redroot pigweed [10] = experiment: Test Example 4: herbicidal effect by soil treatment (Table 19, symbol N); type: in vivo, redroot pigweed (Amaranthus retroflexus); conditions: amount of applied herbicide 320 g/ha
Procedure, shortened: as §1

barnyard grass [11] = experiment: Test Example 5: herbicidal effect by foliage application, plastic box (Table 20, symbol H); type: in vivo, barnyard grass (Echinochloa crus-galli); conditions: amount of applied herbicide 320 g/ha; foliage application after 14-day growth; evaluated three weeks after application
Procedure, shortened: as §2

barnyard grass [12] = experiment: Test Example 4: herbicidal effect by soil treatment (Table 19, symbol H); type: in vivo, barnyard grass (Echinochloa crus-galli); conditions: amount of applied herbicide 320 g/ha
Procedure, shortened: as §1

lambsquarters [13] = experiment: Test Example 5: herbicidal effect by foliage application, plastic box (Table 20, symbol O); type: in vivo, lambsquarters (Chenopodium album); conditions: amount of applied herbicide 320 g/ha; foliage application after 14-day growth; evaluated three weeks after application
Procedure, shortened: as §2

Italian ryegrass [14] = experiment: Test Example 5: herbicidal effect by foliage application, plastic box (Table 20, symbol K); type: in vivo, Italian ryegrass (Lolium multiflorum); conditions: amount of applied herbicide 320 g/ha; foliage application after 14-day growth; evaluated three weeks after application
Procedure, shortened: as §2

Japanese bulrush = experiment: Test Example 1: herbicidal activity, application before weed generation under submerged conditions (Table 16, symbol B); type: in vivo, Japanese bulrush (Schoenoplectus juncoides); conditions: amount of applied herbicide 320 g/ha
Procedure, shortened: as §3

windgrass [15] = experiment: Test Example 5: herbicidal effect by foliage application, plastic box (Table 20, symbol L); type: in vivo, windgrass (Apera spica-venti); conditions: amount of applied herbicide 320 g/ha; foliage application after 14-day growth; evaluated three weeks after application
Procedure, shortened: as §2

chickweed [16] = experiment: Test Example 5: herbicidal effect by foliage application, plastic box (Table 20, symbol P); type: in vivo, common chickweed (Stellaria media); conditions: amount of applied herbicide 320 g/ha; foliage application after 14-day growth; evaluated three weeks after application
Procedure, shortened: as §2

Chinese sprangletop = experiment: Test Example 3: herbicidal effect by foliage application, Wagner pot (Table 18, symbol D); type: in vivo, chinese sprangletop (Leptochloa chinensis); conditions: 320 g/ha
Procedure, shortened: as §4

false cleavers = experiment: Test Example 5: herbicidal effect by foliage application, plastic box (Table 20, symbol Q); type: in vivo, false cleavers (Galium spurium); conditions: amount of applied herbicide 320 g/ha; foliage application after 14-day growth; evaluated three weeks after application
Procedure, shortened: as §2

windgrass [17] = experiment: Test Example 4: herbicidal effect by soil treatment (Table 19, symbol L); type: in vivo, windgrass (Apera spica-venti); conditions: amount of applied herbicide 320 g/ha
Procedure, shortened: as §1

oval-leafed pondweed = experiment: Test Example 1: herbicidal activity, application before weed generation under submerged conditions (Table 16, symbol C); type: in vivo, oval-leafed pondweed (Monochoria vaginalis); conditions: amount of applied herbicide 320 g/ha
Procedure, shortened: as §3

redroot pigweed [18] = experiment: Test Example 5: herbicidal effect by foliage application, plastic box (Table 20, symbol N); type: in vivo, redroot pigweed (Amaranthus retroflexus); conditions: amount of applied herbicide 320 g/ha; foliage application after 14-day growth; evaluated three weeks after application
Procedure, shortened: as §2

lambsquarters [19] = experiment: Test Example 4: herbicidal effect by soil treatment (Table 19, symbol O); type: in vivo, lambsquarters (Chenopodium album); conditions: amount of applied herbicide 320 g/ha
Procedure, shortened: as §1

southern crabgrass [20] = experiment: Test Example 4: herbicidal effect by soil treatment (Table 19, symbol F); type: in vivo, southern crabgrass (Digitaria ciliaris); conditions: amount of applied herbicide 320 g/ha
Procedure, shortened: as §1

barnyard grass [21] = experiment: Test Example 3: herbicidal effect by foliage application, Wagner pot (Table 18, symbol H); type: in vivo, barnyard grass (Echinochloa crus-galli); conditions: 320 g/ha
Procedure, shortened: as §4

southern crabgrass [22] = experiment: Test Example 5: herbicidal effect by foliage application, plastic box (Table 20, symbol F); type: in vivo, southern crabgrass (Digitaria ciliaris); conditions: amount of applied herbicide 320 g/ha; foliage application after 14-day growth; evaluated three weeks after application
Procedure, shortened: as §2

velvetleaf [23] = experiment: Test Example 4: herbicidal effect by soil treatment (Table 19, symbol M); type: in vivo, velvetleaf (Abutilon theophrasti); conditions: amount of applied herbicide 320 g/ha
Procedure, shortened: as §1

blackgrass [24] = experiment: Test Example 5: herbicidal effect by foliage application, plastic box (Table 20, symbol J); type: in vivo, blackgrass (Alopecurus myosuroides); conditions: amount of applied herbicide 320 g/ha; foliage application after 14-day growth; evaluated three weeks after application
Procedure, shortened: as §2

persian speedwell [25] = experiment: Test Example 5: herbicidal effect by foliage application, plastic box (Table 20, symbol R); type: in vivo, Persian speedwell (Veronica persica); conditions: amount of applied herbicide 320 g/ha; foliage application after 14-day growth; evaluated three weeks after application
Procedure, shortened: as §2

SMILES: Cc1nn(C)c(=O)c(-c2c(-c3ccc(F)cc3)sc3cc(F)c(F)cc23)c1O [5-001]
- G: green foxtail, herbicidal effect grade (green foxtail [1]): 5 (Herbicidal rate of 90% or more (almost completely withered))
- Herbicidal effect by foliage application, M: velvetleaf (velvetleaf [2]): 5 (Herbicidal rate of 90% or more (almost completely withered))
- Herbicidal effect by foliage application, G: green foxtail (green foxtail [3]): 5 (Herbicidal rate of 90% or more (almost completely withered))
- Herbicidal effect, A: late watergrass (late watergrass): 3 (Herbicidal rate of 40% or more and less than 70%)
- J: blackgrass, herbicidal effect grade (blackgrass [4]): 4 (Herbicidal rate of 70% or more and less than 90%)
- herbicidal effect on rice flat sedge (E) (rice flat sedge): 5 (Herbicidal rate of 90% or more (almost completely withered))
- I: wild oat, herbicidal effect grade (wild oat [5]): 3 (Herbicidal rate of 40% or more and less than 70%)
- R: persian speedwell, herbicidal effect grade (persian speedwell [6]): 5 (Herbicidal rate of 90% or more (almost completely withered))
- P: chickweed, herbicidal effect grade (chickweed [7]): 4 (Herbicidal rate of 70% or more and less than 90%)
- Herbicidal effect by foliage application, I: wild oat (wild oat [8]): 4 (Herbicidal rate of 70% or more and less than 90%)
- K: Italian ryegrass, herbicidal effect grade (Italian ryegrass [9]): 5 (Herbicidal rate of 90% or more (almost completely withered))
- N: redroot pigweed, herbicidal effect grade (redroot pigweed [10]): 5 (Herbicidal rate of 90% or more (almost completely withered))
- Herbicidal effect by foliage application, H: barnyard grass (barnyard grass [11]): 4 (Herbicidal rate of 70% or more and less than 90%)
- H: barnyard grass, herbicidal effect grade (barnyard grass [12]): 0 (Herbicidal rate of 5% or less (almost no effect))
- Herbicidal effect by foliage application, O: lambsquarters (lambsquarters [13]): 5 (Herbicidal rate of 90% or more (almost completely withered))
- Herbicidal effect by foliage application, K: Italian ryegrass (Italian ryegrass [14]): 5 (Herbicidal rate of 90% or more (almost completely withered))
- Herbicidal effect, B: Japanese bulrush (Japanese bulrush): 1 (Herbicidal rate of 5% or more and less than 20%)
- Herbicidal effect by foliage application, L: windgrass (windgrass [15]): 5 (Herbicidal rate of 90% or more (almost completely withered))
- Herbicidal effect by foliage application, P: chickweed (chickweed [16]): 5 (Herbicidal rate of 90% or more (almost completely withered))
- herbicidal effect on Chinese sprangletop (D) (Chinese sprangletop): 3 (Herbicidal rate of 40% or more and less than 70%)
- Herbicidal effect by foliage application, Q: false cleavers (false cleavers): 5 (Herbicidal rate of 90% or more (almost completely withered))
- L: windgrass, herbicidal effect grade (windgrass [17]): 5 (Herbicidal rate of 90% or more (almost completely withered))
- Herbicidal effect, C: oval-leafed pondweed (oval-leafed pondweed): 0 (Herbicidal rate of 5% or less (almost no effect))
- Herbicidal effect by foliage application, N: redroot pigweed (redroot pigweed [18]): 5 (Herbicidal rate of 90% or more (almost completely withered))
- O: lambsquarters, herbicidal effect grade (lambsquarters [19]): 5 (Herbicidal rate of 90% or more (almost completely withered))
- F: southern crabgrass, herbicidal effect grade (southern crabgrass [20]): 5 (Herbicidal rate of 90% or more (almost completely withered))
- herbicidal effect on barnyard grass (H) (barnyard grass [21]): 4 (Herbicidal rate of 70% or more and less than 90%)
- Herbicidal effect by foliage application, F: southern crabgrass (southern crabgrass [22]): 5 (Herbicidal rate of 90% or more (almost completely withered))
- M: velvetleaf, herbicidal effect grade (velvetleaf [23]): 4 (Herbicidal rate of 70% or more and less than 90%)
- Herbicidal effect by foliage application, J: blackgrass (blackgrass [24]): 4 (Herbicidal rate of 70% or more and less than 90%)
- Herbicidal effect by foliage application, R: persian speedwell (persian speedwell [25]): 5 (Herbicidal rate of 90% or more (almost completely withered))
